Laboratory results published in ChEMBL document CHEMBL1201862, “PubChem BioAssay data set” (2004).
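Briefly, cells in 96-well plates were exposed to five compound concentrations for 48 h, and endpoints were estimated by linear interpolation. GI50 is the concentration that inhibits growth by half.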 Calls of active or inactive are those of the source. Rule as the data show it: active = GI50 up to about 1.1 µM and inactive = higher.

Experiments:
Assay in all cases: inhibition of tumour cell growth, NCI panel, 48 h
[1] = system: SK-MEL-2
[2] = system: ACHN
[3] = system: NCI-H522
[4] = system: NCI-H23
[5] = system: OVCAR-4
[6] = system: K562
[7] = system: SW-620
[8] = system: HCT-116
[9] = system: SK-MEL-5
[10] = system: Malme-3M
[11] = system: SF-295
[12] = system: M14
[13] = system: NCI-H460
[14] = system: A498
[15] = system: A549
[16] = system: HOP-92
[17] = system: SNB-75

Measured: GI50

CCc1ccccc1NC(=O)C(=O)C(C(=O)c1ccc(OC)cc1)c1ccc(OC)cc1 (stereo not drawn)
inactive: [1] > 100 µM | [2] > 100 µM | [3] > 100 µM | [4] > 100 µM | [5] > 100 µM | [6] > 100 µM | [7] > 100 µM | [8] > 100 µM | [9] > 100 µM | [10] > 100 µM | [11] > 100 µM | [12] > 100 µM | [13] > 100 µM | [14] > 100 µM | [15] > 100 µM

C=C(CO)CC(O)c1cc(OC)ccc1OC (stereo not drawn)
inactive: [1] > 100 µM | [2] > 100 µM | [3] > 100 µM | [5] > 100 µM | [6] > 100 µM | [7] > 100 µM | [16] > 100 µM | [9] > 100 µM | [10] > 100 µM | [11] > 100 µM | [12] > 100 µM | [13] > 100 µM | [15] > 100 µM | [17] > 100 µM

C=C(C)CCOC(c1ccccc1)(c1ccccc1)c1ccccc1
inactive: [2] 25.7 µM | [3] 18.9 µM | [4] 27.8 µM | [5] 34.7 µM | [6] > 100 µM | [7] 82.4 µM | [8] 18.7 µM | [16] 33.6 µM | [9] 27.4 µM | [10] 28.4 µM | [11] 37.4 µM | [12] 32.8 µM | [13] 29.1 µM | [15] 38.9 µM | [17] 68.7 µM

CN(C)c1ccc(/C=C2\Cc3ccccc3C2=O)cc1Br
inactive: [1] 40.6 µM | [2] 45.8 µM | [3] 23.4 µM | [4] 39.2 µM | [5] 41.8 µM | [6] 33 µM | [7] 59.3 µM | [9] 26.4 µM | [10] 31.8 µM | [11] > 100 µM | [12] 54.6 µM | [13] 53.6 µM | [14] > 100 µM | [15] 61.4 µM | [17] 38.5 µM

COC(=O)OCC1OC(N2C(=O)NC(=O)C(Br)C2N=[N+]=[N-])CC1OC(=O)OC (stereo not drawn)
inactive: [2] > 100 µM | [3] 66.4 µM | [4] > 100 µM | [5] > 100 µM | [7] > 100 µM | [8] > 100 µM | [16] > 100 µM | [9] > 100 µM | [10] > 100 µM | [11] > 100 µM | [12] > 100 µM | [13] > 100 µM | [15] > 100 µM | [17] > 100 µM
